In patent US10995052B2, “Biaromatic propynyl compounds, pharmaceutical and cosmetic compositions containing same, and uses thereof” (GALDERMA RESEARCH & DEVELOPMENT, priority 2016, dated 2021):

How the values were obtained:
Test in all cases: Transactivation test in HeLa cells (luciferase reporter), apparent Kd by Schild regression
Type in all cases: cell-based
RAR alpha = molecular target: T1, RAR alpha (Homo sapiens, UniProt P10276); conditions: stably transfected HeLa cells, versus reference antagonist, 18 hours incubation, read-out: RAR alpha Kdapp
T1 sequence (P10276 183-417 limits assumed): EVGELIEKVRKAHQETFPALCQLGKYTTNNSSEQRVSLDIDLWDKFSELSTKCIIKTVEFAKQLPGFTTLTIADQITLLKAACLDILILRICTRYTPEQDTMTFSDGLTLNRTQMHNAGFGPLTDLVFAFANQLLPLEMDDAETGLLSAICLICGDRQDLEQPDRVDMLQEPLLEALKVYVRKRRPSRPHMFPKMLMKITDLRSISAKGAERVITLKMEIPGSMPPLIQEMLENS
Description: (§1) Activation of receptors by an agonist (activator) in HeLa cells leads to the expression of a reporter gene, luciferase, which generates light in the presence of a substrate. Therefore the activation of receptors can be measured by quantifying the luminescence produced after incubation of the cells in the presence of a reference antagonist. The activator products displace the antagonist from its site, thus permitting the receptor to be activated. The activity is measured by quantifying the increase in light produced. This measurement determines the activating activity of the useful compound in the invention.
(§2) In this study, a constant is determined that represents the affinity of the molecule for the receptor. This value can fluctuate according to the basal activity and expression of the receptor; it is designated apparent Kd (KdApp). […]
(§3) Full agonist controls, also called 100% controls, (4-[2-(5,5,8,8 tetramethyl-5,6,7,8 tetrahydronaphthalene-2-yl)propenyl]-benzoic acid) and inverse agonist controls, also called 0% controls, (4-{(E)-3-[4-(4-tert-butyl-phenyl)-5,5,8,8-tetramethyl-5,6,7,8-tetrahydro-naphthalen-2-yl]-3-oxo-propenyl}-benzoic acid) are also measured.
(§4) These cross curves allow determining the AC50 (concentration at which 50% activation of the receptor is observed) of the reference ligand at different concentrations of the product to be tested. These AC50s are used to calculate the Schild regression by plotting a line conforming to the Schild equation (“Quantitation in receptor pharmacology” Terry P. Kenakin, Receptors and Channels, 2001, 7, 371-385).
(§5) In the case of an […], the AC50 is calculated by plotting the curve of the product at the concentration of the reference ligand giving 80% activation. The percentage of activation that corresponds to the maximum level of activity obtained is also measured. […]
(§6) The culture medium is removed by turning over and 100 μl of a 1:1 PBS (phosphate buffer solution)/luciferin mixture is added to each well. After 5 minutes, the plates are read by the luminescence reader.

RAR gamma = molecular target: T2, RAR gamma (Homo sapiens, UniProt P13631); conditions: stably transfected HeLa cells, versus reference antagonist, 18 hours incubation, read-out: RAR gamma Kdapp
T2 sequence (P13631 178-423 limits assumed): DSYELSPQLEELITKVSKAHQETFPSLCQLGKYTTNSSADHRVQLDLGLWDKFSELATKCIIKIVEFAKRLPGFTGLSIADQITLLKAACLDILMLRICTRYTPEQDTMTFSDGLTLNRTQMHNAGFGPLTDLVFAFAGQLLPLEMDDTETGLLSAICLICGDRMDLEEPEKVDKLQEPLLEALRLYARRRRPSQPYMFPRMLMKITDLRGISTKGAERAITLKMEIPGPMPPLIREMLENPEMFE
Description: as §1, §2, §3, §4, §5, §6

RAR beta = molecular target: T3, RAR beta (Homo sapiens, UniProt P10826); conditions: stably transfected HeLa cells, versus reference antagonist, 18 hours incubation, read-out: RAR beta Kdapp
T3 sequence (P10826 183-417 limits assumed): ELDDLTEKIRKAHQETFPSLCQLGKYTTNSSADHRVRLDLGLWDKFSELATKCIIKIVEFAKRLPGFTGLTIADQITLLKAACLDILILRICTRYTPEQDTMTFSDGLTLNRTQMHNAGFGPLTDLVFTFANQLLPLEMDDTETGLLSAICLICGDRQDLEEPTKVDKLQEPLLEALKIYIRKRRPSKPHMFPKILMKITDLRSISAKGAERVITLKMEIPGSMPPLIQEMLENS
Description: as §1, §2, §3, §4, §5, §6

With `CC1(C)CCC(C)(C)c2cc(-c3cc(-c4ccc(C(=O)O)cc4)ccc3CCCO)ccc21` [Compound 1, 4′-(3-hydroxy-propyl)-3′-(5,5,8,8-tetramethyl-5,6,7,8-tetrahydro-naphthalen-2-yl)-biphenyl-4-carboxylic acid] the Kd (RAR alpha) was 120 nM, the Kd (RAR gamma) was 4 nM and the Kd (RAR beta) was 4 nM.
